{"source": "patent US5972894A", "about": "“Peptides having potassium channel opener activity” (Cytran, Inc., priority 1997, dated 1999)", "tested_on": "Intestinal Smooth Muscle", "experiment": "Calcium-induced contraction of intestinal smooth muscle specimens", "type": "cell-based, guinea pigs", "details": "for Contraction Amplitude, calcium-induced (% of control level): 20 mM CaCl2", "method": "GE and VT served as test substances in this experiment. GE was tested at concentrations of 10^-6 g/ml and 10^-5 g/ml (4.9×10^-6 M and 4.9×10^-5 M, respectively), and VT was tested at concentrations 10^-6 g/ml and 10^-5 g/ml (4.58×10^-6 and 4.58×10^-5 M, respectively).\nSmall intestinal SMS samples from ten guinea pigs were surgically isolated and prepared as follows. First, the SMS samples were preincubated for 40 minutes in an organ bath holding a standard Krebs-Henseleit physiological salt solution containing calcium chloride (CaCl2) at concentration of 2.5 mM. Next, each SMS was washed with a calcium-free solution of Krebs-Henseleit and incubated in a calcium-free Krebs-Henseleit solution for 40 minutes. Contractile activity was pre-induced in each SMS by first perfusing the organ bath containing the sample for 15 minutes with a Krebs-Henseleit solution containing 30 mM KCl and then perfusing the bath for an additional 15 minutes with a Krebs-Henseleit solution containing 20 mM CaCl2. Finally, each SMS sample was washed with a calcium-free Krebs-Henseleit solution for 40 minutes. In these experiments, measurements of the contractile response of the SMS following the addition of a Krebs-Henseleit solution containing 20 mM calcium served as the control (baseline). Changes in contraction amplitudes were recorded by using the method set forth in Step 1 of Example 2, above.\nAfter washing the SMS as outlined in Step 1, the organ bath with the SMS sample was perfused for 15 minutes with the solution of a test or reference substance. In this instance, GE and VT served as the test substances, and each dipeptide was tested at a concentration of 10^-6 g/ml.\nFollowing perfusion with the test or reference substance, the SMS sample/organ bath was perfused for 10 minutes with a Krebs-Henseleit solution containing 30 mM KCl and then perfused for an additional 10 minutes with a Krebs-Henseleit solution containing 20 mM CaCl2. Next, each SMS sample was washed with a calcium-free Krebs-Henseleit solution for 40 minutes. The effect of the test or reference substance on the SMS sample was evaluated by measuring the contractile response (i.e., the change in contraction amplitude) of the sample following the addition of the Krebs-Henseleit solution containing 20 mM CaCl2.\nNext, the organ bath was perfused for 10 minutes with a Krebs-Henseleit solution containing 30 mM KCl and then for additional 10 minutes with a Krebs-Henseleit solution containing 20 mM CaCl2. The effect of the respective test or reference substance was evaluated a second time by measuring the change in the contraction amplitude of the SMS following the addition of the Krebs-Henseleit solution containing 20 mM CaCl2. […]", "note": "Residues, ends and D or L forms follow the SMILES beside them."}
{"compound": "NCC(=O)N[C@@H](CCC(=O)O)C(=O)O", "note": "[GE, L-Glycyl-L-Glutamic acid] (H-Gly-Glu-OH)", "values": [{"measurement": "effect on calcium-induced intestinal smooth muscle tonic contraction", "setting": "10^-6 and 10^-5 g/ml", "value": "significantly reduced the amplitude"}, {"measurement": "Contraction Amplitude, calcium-induced (% of control level)", "setting": "Application I, 10^-6 g/ml", "value": 51.08, "unit": "%"}, {"measurement": "Contraction Amplitude, calcium-induced (% of control level)", "setting": "Application II, 10^-5 g/ml", "value": 33.14, "unit": "%"}]}
